Experimental data: PMC9898755 (The Journal of Biological Chemistry, 2023)

Columns and labels:
[1] = biological target: T1, Sec14^V154F (Saccharomyces cerevisiae, UniProt P24280, V154F); experiment: [3H]-PtdIns-transfer assay, […] PITP, […] himbacine, […] inhibition; format: biochemical; details: read-out: % inhibition at 20 μM
T1 sequence (P24280 2-304 V154F): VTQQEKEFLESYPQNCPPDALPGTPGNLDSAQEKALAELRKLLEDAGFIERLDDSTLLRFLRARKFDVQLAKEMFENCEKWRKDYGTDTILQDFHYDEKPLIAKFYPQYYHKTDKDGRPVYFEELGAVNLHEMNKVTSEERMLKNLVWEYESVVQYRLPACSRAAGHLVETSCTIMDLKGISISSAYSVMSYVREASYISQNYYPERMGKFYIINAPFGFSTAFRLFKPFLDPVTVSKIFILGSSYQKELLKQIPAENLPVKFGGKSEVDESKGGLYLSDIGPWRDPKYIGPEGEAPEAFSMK

[2] = biological target: T2, Sec14^V155F (Saccharomyces cerevisiae, UniProt P24280, V155F); experiment: as above; format: biochemical; details: read-out: % inhibition at 20 μM
T2 sequence (P24280 2-304 V155F): T1 sequence (P24280 2-304 V154F)

Compound: C[C@@H]1OC(=O)[C@H]2C[C@H]3CCCC[C@@H]3[C@@H](/C=C/[C@H]3CCC[C@H](C)N3C)[C@@H]12 [himbacine]
- inhibition at 20 µM [1]: 71 ± 1.2%
- inhibition at 20 µM [2]: 73 ± 2.1%
